Test results taken from PubChem BioAssay (NCI).
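Assay format: 96-well plates, 48-hour exposure. GI50 = concentration required for 50% inhibition of growth. TGI: total growth inhibition.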

Key:
Experiment in all cases: inhibition of tumour cell growth, NCI panel, 48 h
[1] = tested on: 786-0 renal
[2] = tested on: A498 renal
[3] = tested on: A549 NSCLC
[4] = tested on: ACHN renal
[5] = tested on: BT-549 breast
[6] = tested on: CAKI-1 renal
[7] = tested on: CCRF-CEM leukemia
[8] = tested on: COLO 205 colon
[9] = tested on: DU-145 prostate
[10] = tested on: EKVX NSCLC
[11] = tested on: HCC-2998 colon
[12] = tested on: HCT-116 colon
[13] = tested on: HCT-15 colon
[14] = tested on: HL-60(TB) leukemia
[15] = tested on: HOP-62 NSCLC
[16] = tested on: HOP-92 NSCLC
[17] = tested on: HS 578T breast
[18] = tested on: HT29 colon
[19] = tested on: IGROV1 ovarian
[20] = tested on: K-562 leukemia
[21] = tested on: KM12 colon
[22] = tested on: LOX IMVI melanoma
[23] = tested on: M14 melanoma
[24] = tested on: MALME-3M melanoma
[25] = tested on: MCF7 breast
[26] = tested on: MDA-MB-231 breast
[27] = tested on: MDA-MB-435
[28] = tested on: MOLT-4 leukemia
[29] = tested on: NCI-H226 lung
[30] = tested on: NCI-H23 lung
[31] = tested on: NCI-H460 lung
[32] = tested on: NCI-H522 lung
[33] = tested on: NCI/ADR-RES ovarian
[34] = tested on: OVCAR-3 ovarian
[35] = tested on: OVCAR-4 ovarian
[36] = tested on: OVCAR-5 ovarian
[37] = tested on: OVCAR-8 ovarian
[38] = tested on: PC-3 prostate
[39] = tested on: RPMI-8226 leukemia
[40] = tested on: RXF 393 renal
[41] = tested on: SF-268 CNS
[42] = tested on: SF-295 CNS
[43] = tested on: SF-539 CNS
[44] = tested on: SK-MEL-2 melanoma
[45] = tested on: SK-MEL-28 melanoma
[46] = tested on: SK-MEL-5 melanoma
[47] = tested on: SK-OV-3 ovarian
[48] = tested on: SN12C renal
[49] = tested on: SNB-19 CNS
[50] = tested on: SNB-75 CNS
[51] = tested on: SR leukemia
[52] = tested on: SW-620 colon
[53] = tested on: T-47D breast
[54] = tested on: TK-10 renal
[55] = tested on: U251 CNS
[56] = tested on: UACC-257 melanoma
[57] = tested on: UACC-62 melanoma
[58] = tested on: UO-31 renal

SMILES: CCO/C=N/C1=C(C#N)C(c2ccc(Cl)cc2)c2sc3c(C)cccc3c2O1 (stereo unspecified)
- GI50 [1]: 0.976 µM
- TGI [1]: 13.9 µM
- GI50 [2]: 0.315 µM
- TGI [2]: 1.48 µM
- GI50 [3]: 0.749 µM
- TGI [3]: 15.1 µM
- GI50 [4]: 0.631 µM
- TGI [4]: 15.1 µM
- GI50 [5]: 1.83 µM
- TGI [5]: 11.4 µM
- GI50 [6]: 0.532 µM
- TGI [6]: 18.5 µM
- GI50 [7]: 0.371 µM
- TGI [7]: 19.4 µM
- GI50 [8]: 1.99 µM
- TGI [8]: 6.93 µM
- GI50 [9]: 0.758 µM
- TGI [9]: 14.4 µM
- GI50 [10]: 0.604 µM
- TGI [10]: 15.6 µM
- GI50 [11]: 1.51 µM
- TGI [11]: 8.52 µM
- GI50 [12]: 0.448 µM
- TGI [12]: 11.1 µM
- GI50 [13]: 0.423 µM
- TGI [13]: 10.2 µM
- GI50 [14]: 0.329 µM
- TGI [14]: 13.9 µM
- GI50 [15]: 0.574 µM
- TGI [15]: 18.6 µM
- GI50 [16]: 0.188 µM
- TGI [16]: 3.76 µM
- GI50 [17]: 0.414 µM
- TGI [17]: 11.5 µM
- GI50 [18]: 0.967 µM
- TGI [18]: 11.9 µM
- GI50 [19]: 0.517 µM
- TGI [19]: 15 µM
- GI50 [20]: 0.379 µM
- TGI [20]: > 51.3 µM
- GI50 [21]: 0.551 µM
- TGI [21]: 15.7 µM
- GI50 [22]: 0.611 µM
- TGI [22]: 13 µM
- GI50 [23]: 0.528 µM
- TGI [23]: 11.9 µM
- GI50 [24]: 0.689 µM
- TGI [24]: 23.4 µM
- GI50 [25]: 0.327 µM
- TGI [25]: 11.6 µM
- GI50 [26]: 2.19 µM
- TGI [26]: 15.4 µM
- GI50 [27]: 0.214 µM
- TGI [27]: 0.516 µM
- GI50 [28]: 0.808 µM
- TGI [28]: > 88.9 µM
- GI50 [29]: 1.15 µM
- TGI [29]: 15.4 µM
- GI50 [30]: 1.33 µM
- TGI [30]: 19.2 µM
- GI50 [31]: 0.406 µM
- TGI [31]: 7.66 µM
- GI50 [32]: 0.398 µM
- TGI [32]: 5.05 µM
- GI50 [33]: 0.438 µM
- TGI [33]: 13.4 µM
- GI50 [34]: 0.409 µM
- TGI [34]: 7.85 µM
- GI50 [35]: 1.35 µM
- TGI [35]: 19.9 µM
- GI50 [36]: 2.37 µM
- TGI [36]: 15.5 µM
- GI50 [37]: 1.19 µM
- TGI [37]: 15.9 µM
- GI50 [38]: 0.377 µM
- TGI [38]: 12.1 µM
- GI50 [39]: 0.408 µM
- TGI [39]: 15.8 µM
- GI50 [40]: 0.275 µM
- TGI [40]: 1.33 µM
- GI50 [41]: 1.49 µM
- TGI [41]: 19.4 µM
- GI50 [42]: 0.288 µM
- TGI [42]: 2.47 µM
- GI50 [43]: 0.379 µM
- TGI [43]: 1.81 µM
- GI50 [44]: 1.06 µM
- TGI [44]: 20.8 µM
- GI50 [45]: 2.48 µM
- TGI [45]: 22.4 µM
- GI50 [46]: 0.845 µM
- TGI [46]: 10.4 µM
- GI50 [47]: 2.7 µM
- TGI [47]: 22.1 µM
- GI50 [48]: 0.865 µM
- TGI [48]: 12.6 µM
- GI50 [49]: 0.566 µM
- TGI [49]: 16.3 µM
- GI50 [50]: 0.234 µM
- TGI [50]: 1.41 µM
- GI50 [51]: 0.542 µM
- TGI [51]: > 47.2 µM
- GI50 [52]: 0.451 µM
- TGI [52]: 15.8 µM
- GI50 [53]: 0.462 µM
- TGI [53]: 29.2 µM
- GI50 [54]: 9.74 µM
- TGI [54]: 30 µM
- GI50 [55]: 0.609 µM
- TGI [55]: 12.7 µM
- GI50 [56]: 12.1 µM
- TGI [56]: 32.1 µM
- GI50 [57]: 0.447 µM
- TGI [57]: 14.8 µM
- GI50 [58]: 0.562 µM
- TGI [58]: 17.1 µM
